Literature values in patent publication US11173114B1, “Method and system for manufacturing and oral soluble films and oral soluble films made by thereby” (NOVA Thin Film Pharmaceuticals LLC, priority 2020, dated 2021).
Read-outs that look alike come from different tables or passages of the source.

Structure (SMILES): O [Water]
- Surface tension (head printed □) (25 ° C.): 71.97 mN/m
- Surface tension (head printed □) (40 ° C.): 69.56 mN/m
- Surface tension (head printed □) (80 ° C.): 62.6 mN/m
